Laboratory results taken from PMC3969223, “Characterization of WZ4003 and HTH-01-015 as selective inhibitors of the LKB1-tumour-suppressor-activated NUAK kinases” (Biochemical Journal, 2013).

Assays:
[1] = biological target: MARK1 (Homo sapiens, UniProt Q9P0L2); experiment: Kinase profiling; type: biochemical
Procedure, shortened: (§1)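 In this specificity profiling, inhibitors at 0.1 or 1 μM were run against 140 protein kinases in vitro. Activity is reported relative to DMSO-treated controls as mean ±S.D. of three reactions.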

[2] = biological target: MARK3 (Homo sapiens, UniProt P27448); experiment: Kinase profiling; type: biochemical
Procedure, shortened: as §1

[3] = system: MYPT1 phosphorylation; experiment: MYPT1 phosphorylation on detachment, U2OS; type: cell-based; conditions: 10 μM, 16 h
Protocol: Figure 7 NUAK1 inhibition suppresses cell proliferation (A) U2OS cells were incubated with or without 10 μM WZ4003 or 10 μM HTH-01-015 and a cell proliferation assay was carried out over 5 days in triplicate using the CellTiter 96® AQueous Non-Radioactive Cell Proliferation Assay kit (Promega) (as described in the Materials and methods section). U2OS cells in which NUAK1 has been knocked-down using two different shRNA hairpins were used in parallel as controls. The efficiency of the knock down of each shRNA is shown in top panel. SCR, control scrambled shRNA hairpin; shNUAK1 (1), first NUAK1 shRNA hairpin; shNUAK1 (2), second NUAK1 shRNA hairpin. (B) U2OS cells were treated with (+) or without (−) 10 μM WZ4003 or 10 μM HTH-01-015. After 16 h cell media was removed and cells were treated with EDTA-PBS-based cell dissociation buffer supplemented with 10 μM WZ4003, 10 μM HTH-01–015 or DMSO for 20 min. Cell detachment was induced with gentle tapping of the plates followed by gentle centrifugation at 70 g for 3 min. Cells were lysed immediately after removal of the media and immunoblotted for the detection of the indicated antibodies. (C and D) As above, except NUAK1^+/+ and NUAK1^−/− MEFs were used. Similar results were obtained in three separate experiments.

[4] = biological target: BTK (Homo sapiens, UniProt Q06187); experiment: Kinase profiling; type: biochemical; conditions: 0.1 or 1 μM inhibitor; mean of triplicate
Procedure, shortened: as §1

[5] = biological target: CHK2 (Homo sapiens, UniProt O96017); experiment: Kinase profiling; type: biochemical; conditions: 0.1 or 1 μM inhibitor; mean of triplicate
Procedure, shortened: as §1

[6] = biological target: CK1γ 2 (Homo sapiens, UniProt P78368); experiment: Kinase profiling; type: biochemical; conditions: 0.1 or 1 μM inhibitor; mean of triplicate
Procedure, shortened: as §1

[7] = biological target: CK2 (Homo sapiens, UniProt P68400); experiment: Kinase profiling; type: biochemical; conditions: 0.1 or 1 μM inhibitor; mean of triplicate
Sequence of CK2 (P68400 whole entry): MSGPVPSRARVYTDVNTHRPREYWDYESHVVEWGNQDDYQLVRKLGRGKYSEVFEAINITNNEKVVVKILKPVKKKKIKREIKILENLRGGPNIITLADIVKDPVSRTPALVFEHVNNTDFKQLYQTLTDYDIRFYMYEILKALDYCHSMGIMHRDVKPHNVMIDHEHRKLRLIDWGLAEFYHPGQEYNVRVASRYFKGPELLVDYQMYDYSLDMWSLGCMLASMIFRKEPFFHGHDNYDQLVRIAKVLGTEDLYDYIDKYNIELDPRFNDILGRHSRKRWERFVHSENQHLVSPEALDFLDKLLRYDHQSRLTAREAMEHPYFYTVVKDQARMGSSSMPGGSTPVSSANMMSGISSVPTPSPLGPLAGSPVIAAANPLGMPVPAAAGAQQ

[8] = biological target: CSK (Homo sapiens, UniProt P41240); experiment: Kinase profiling; type: biochemical; conditions: 0.1 or 1 μM inhibitor; mean of triplicate
Sequence of CSK (P41240 whole entry): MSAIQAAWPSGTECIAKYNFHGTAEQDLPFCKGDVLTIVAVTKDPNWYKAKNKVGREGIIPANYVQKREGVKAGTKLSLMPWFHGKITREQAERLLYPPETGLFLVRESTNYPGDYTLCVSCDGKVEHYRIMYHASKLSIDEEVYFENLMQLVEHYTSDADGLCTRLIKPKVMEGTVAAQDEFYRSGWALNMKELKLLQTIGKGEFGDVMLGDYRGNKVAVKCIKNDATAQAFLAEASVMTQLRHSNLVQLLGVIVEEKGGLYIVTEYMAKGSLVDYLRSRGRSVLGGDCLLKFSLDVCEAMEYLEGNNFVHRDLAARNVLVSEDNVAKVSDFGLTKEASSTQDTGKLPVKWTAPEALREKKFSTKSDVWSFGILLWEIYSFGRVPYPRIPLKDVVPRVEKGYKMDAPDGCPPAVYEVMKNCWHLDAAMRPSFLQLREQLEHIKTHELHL
Procedure, shortened: as §1

[9] = biological target: DYRK1A (Homo sapiens, UniProt Q13627); experiment: Kinase profiling; type: biochemical; conditions: 0.1 or 1 μM inhibitor; mean of triplicate
[10] = biological target: EIF2AK3 (Homo sapiens, UniProt Q9NZJ5); experiment: Kinase profiling; type: biochemical; conditions: 0.1 or 1 μM inhibitor; mean of triplicate
Procedure, shortened: as §1

[11] = biological target: EPH-B2 (Homo sapiens, UniProt P29323); experiment: Kinase profiling; type: biochemical; conditions: 0.1 or 1 μM inhibitor; mean of triplicate
Procedure, shortened: as §1

[12] = biological target: EPH-B3 (Homo sapiens, UniProt P54753); experiment: Kinase profiling; type: biochemical; conditions: 0.1 or 1 μM inhibitor; mean of triplicate
Procedure, shortened: as §1

[13] = biological target: ERK2 (Homo sapiens, UniProt P28482); experiment: Kinase profiling; type: biochemical; conditions: 0.1 or 1 μM inhibitor; mean of triplicate
Procedure, shortened: as §1

[14] = biological target: GSK3β (Homo sapiens, UniProt P49841); experiment: Kinase profiling; type: biochemical; conditions: 0.1 or 1 μM inhibitor; mean of triplicate
[15] = biological target: LKB1 (Homo sapiens, UniProt Q15831); experiment: Kinase profiling; type: biochemical; conditions: 0.1 or 1 μM inhibitor; mean of triplicate
Procedure, shortened: as §1

[16] = biological target: MAPKAP-K3 (Homo sapiens, UniProt Q16644); experiment: Kinase profiling; type: biochemical; conditions: 0.1 or 1 μM inhibitor; mean of triplicate
Procedure, shortened: as §1

[17] = biological target: MINK1 (Homo sapiens, UniProt Q8N4C8); experiment: Kinase profiling; type: biochemical; conditions: 0.1 or 1 μM inhibitor; mean of triplicate
Procedure, shortened: as §1

[18] = biological target: MKK2 (Homo sapiens, UniProt P36507); experiment: Kinase profiling; type: biochemical; conditions: 0.1 or 1 μM inhibitor; mean of triplicate
Procedure, shortened: as §1

[19] = biological target: MKK6 (Homo sapiens, UniProt P52564); experiment: Kinase profiling; type: biochemical; conditions: 0.1 or 1 μM inhibitor; mean of triplicate
Sequence of MKK6 (P52564 whole entry): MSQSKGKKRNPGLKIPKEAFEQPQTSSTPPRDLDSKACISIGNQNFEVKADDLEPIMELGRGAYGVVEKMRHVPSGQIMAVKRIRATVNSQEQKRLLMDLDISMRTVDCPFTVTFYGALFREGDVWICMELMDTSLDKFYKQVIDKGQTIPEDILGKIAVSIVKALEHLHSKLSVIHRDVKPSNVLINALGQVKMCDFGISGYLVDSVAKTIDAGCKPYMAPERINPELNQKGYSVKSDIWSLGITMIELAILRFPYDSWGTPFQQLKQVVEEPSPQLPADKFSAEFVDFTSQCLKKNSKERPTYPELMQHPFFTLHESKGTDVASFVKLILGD
Procedure, shortened: as §1

[20] = biological target: MST4 (Homo sapiens, UniProt Q9P289); experiment: Kinase profiling; type: biochemical; conditions: 0.1 or 1 μM inhibitor; mean of triplicate
Sequence of MST4 (Q9P289 whole entry): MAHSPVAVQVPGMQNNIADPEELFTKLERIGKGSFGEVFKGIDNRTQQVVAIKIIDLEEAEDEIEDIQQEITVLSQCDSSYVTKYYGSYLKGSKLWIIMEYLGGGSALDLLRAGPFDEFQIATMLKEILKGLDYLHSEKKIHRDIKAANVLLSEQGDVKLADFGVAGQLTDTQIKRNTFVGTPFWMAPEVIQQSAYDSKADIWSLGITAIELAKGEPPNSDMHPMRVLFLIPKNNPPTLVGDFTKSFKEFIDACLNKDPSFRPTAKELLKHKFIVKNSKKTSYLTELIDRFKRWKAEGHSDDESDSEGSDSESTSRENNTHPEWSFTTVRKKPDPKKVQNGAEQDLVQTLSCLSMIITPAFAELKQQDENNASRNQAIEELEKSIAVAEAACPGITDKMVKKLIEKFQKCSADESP
Procedure, shortened: as §1

[21] = biological target: NEK2α (Homo sapiens, UniProt P51955); experiment: Kinase profiling; type: biochemical; conditions: 0.1 or 1 μM inhibitor; mean of triplicate
Sequence of NEK2α (P51955 whole entry): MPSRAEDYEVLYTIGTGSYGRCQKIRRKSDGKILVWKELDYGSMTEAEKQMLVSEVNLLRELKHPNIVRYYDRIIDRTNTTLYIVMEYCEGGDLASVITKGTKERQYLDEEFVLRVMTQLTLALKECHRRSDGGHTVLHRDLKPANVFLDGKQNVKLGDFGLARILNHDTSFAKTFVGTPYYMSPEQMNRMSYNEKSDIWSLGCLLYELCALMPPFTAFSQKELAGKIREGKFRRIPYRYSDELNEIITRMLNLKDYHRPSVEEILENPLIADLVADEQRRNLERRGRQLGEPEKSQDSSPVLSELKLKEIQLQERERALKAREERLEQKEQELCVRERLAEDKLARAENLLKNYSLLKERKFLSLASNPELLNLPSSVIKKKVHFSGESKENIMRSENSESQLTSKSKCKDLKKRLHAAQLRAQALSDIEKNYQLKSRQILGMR
Procedure, shortened: as §1

[22] = biological target: PDK1 (Homo sapiens, UniProt O15530); experiment: Kinase profiling; type: biochemical; conditions: 0.1 or 1 μM inhibitor; mean of triplicate
Procedure, shortened: as §1

[23] = biological target: PHK (Homo sapiens, UniProt Q16816); experiment: Kinase profiling; type: biochemical; conditions: 0.1 or 1 μM inhibitor; mean of triplicate
Sequence of PHK (Q16816 whole entry): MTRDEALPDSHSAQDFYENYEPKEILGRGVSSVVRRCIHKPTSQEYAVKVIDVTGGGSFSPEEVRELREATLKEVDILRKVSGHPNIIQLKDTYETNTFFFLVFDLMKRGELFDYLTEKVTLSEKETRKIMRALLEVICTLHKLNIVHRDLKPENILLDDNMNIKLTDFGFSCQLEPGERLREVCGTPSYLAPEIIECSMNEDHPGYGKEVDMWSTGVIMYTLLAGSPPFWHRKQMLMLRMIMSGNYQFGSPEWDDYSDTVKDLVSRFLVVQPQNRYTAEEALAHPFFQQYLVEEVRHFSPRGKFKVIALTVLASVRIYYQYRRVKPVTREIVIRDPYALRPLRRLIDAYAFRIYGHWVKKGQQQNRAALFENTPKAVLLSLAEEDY
Procedure, shortened: as §1

[24] = biological target: PKBα (Homo sapiens, UniProt P31749); experiment: Kinase profiling; type: biochemical; conditions: 0.1 or 1 μM inhibitor; mean of triplicate
Sequence of PKBα (P31749 whole entry): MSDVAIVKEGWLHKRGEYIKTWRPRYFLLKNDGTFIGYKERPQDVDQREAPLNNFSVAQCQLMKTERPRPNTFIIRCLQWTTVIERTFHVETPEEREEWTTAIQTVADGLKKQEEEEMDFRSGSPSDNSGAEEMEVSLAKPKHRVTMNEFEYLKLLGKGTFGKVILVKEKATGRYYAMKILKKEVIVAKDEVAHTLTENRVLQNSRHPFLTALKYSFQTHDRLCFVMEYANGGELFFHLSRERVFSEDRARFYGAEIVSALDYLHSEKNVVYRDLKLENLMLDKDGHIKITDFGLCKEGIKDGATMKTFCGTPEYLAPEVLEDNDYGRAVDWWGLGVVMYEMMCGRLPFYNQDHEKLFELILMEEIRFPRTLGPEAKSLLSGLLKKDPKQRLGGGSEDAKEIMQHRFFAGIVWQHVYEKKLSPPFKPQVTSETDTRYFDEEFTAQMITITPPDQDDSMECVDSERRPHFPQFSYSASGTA
Procedure, shortened: as §1

[25] = biological target: PKBβ (Homo sapiens, UniProt P31751); experiment: Kinase profiling; type: biochemical; conditions: 0.1 or 1 μM inhibitor; mean of triplicate
Procedure, shortened: as §1

[26] = biological target: PRAK (Homo sapiens, UniProt Q8IW41); experiment: Kinase profiling; type: biochemical; conditions: 0.1 or 1 μM inhibitor; mean of triplicate
Procedure, shortened: as §1

[27] = biological target: ROCK 2 (Homo sapiens, UniProt O75116); experiment: Kinase profiling; type: biochemical; conditions: 0.1 or 1 μM inhibitor; mean of triplicate
Sequence of ROCK 2 (O75116 whole entry): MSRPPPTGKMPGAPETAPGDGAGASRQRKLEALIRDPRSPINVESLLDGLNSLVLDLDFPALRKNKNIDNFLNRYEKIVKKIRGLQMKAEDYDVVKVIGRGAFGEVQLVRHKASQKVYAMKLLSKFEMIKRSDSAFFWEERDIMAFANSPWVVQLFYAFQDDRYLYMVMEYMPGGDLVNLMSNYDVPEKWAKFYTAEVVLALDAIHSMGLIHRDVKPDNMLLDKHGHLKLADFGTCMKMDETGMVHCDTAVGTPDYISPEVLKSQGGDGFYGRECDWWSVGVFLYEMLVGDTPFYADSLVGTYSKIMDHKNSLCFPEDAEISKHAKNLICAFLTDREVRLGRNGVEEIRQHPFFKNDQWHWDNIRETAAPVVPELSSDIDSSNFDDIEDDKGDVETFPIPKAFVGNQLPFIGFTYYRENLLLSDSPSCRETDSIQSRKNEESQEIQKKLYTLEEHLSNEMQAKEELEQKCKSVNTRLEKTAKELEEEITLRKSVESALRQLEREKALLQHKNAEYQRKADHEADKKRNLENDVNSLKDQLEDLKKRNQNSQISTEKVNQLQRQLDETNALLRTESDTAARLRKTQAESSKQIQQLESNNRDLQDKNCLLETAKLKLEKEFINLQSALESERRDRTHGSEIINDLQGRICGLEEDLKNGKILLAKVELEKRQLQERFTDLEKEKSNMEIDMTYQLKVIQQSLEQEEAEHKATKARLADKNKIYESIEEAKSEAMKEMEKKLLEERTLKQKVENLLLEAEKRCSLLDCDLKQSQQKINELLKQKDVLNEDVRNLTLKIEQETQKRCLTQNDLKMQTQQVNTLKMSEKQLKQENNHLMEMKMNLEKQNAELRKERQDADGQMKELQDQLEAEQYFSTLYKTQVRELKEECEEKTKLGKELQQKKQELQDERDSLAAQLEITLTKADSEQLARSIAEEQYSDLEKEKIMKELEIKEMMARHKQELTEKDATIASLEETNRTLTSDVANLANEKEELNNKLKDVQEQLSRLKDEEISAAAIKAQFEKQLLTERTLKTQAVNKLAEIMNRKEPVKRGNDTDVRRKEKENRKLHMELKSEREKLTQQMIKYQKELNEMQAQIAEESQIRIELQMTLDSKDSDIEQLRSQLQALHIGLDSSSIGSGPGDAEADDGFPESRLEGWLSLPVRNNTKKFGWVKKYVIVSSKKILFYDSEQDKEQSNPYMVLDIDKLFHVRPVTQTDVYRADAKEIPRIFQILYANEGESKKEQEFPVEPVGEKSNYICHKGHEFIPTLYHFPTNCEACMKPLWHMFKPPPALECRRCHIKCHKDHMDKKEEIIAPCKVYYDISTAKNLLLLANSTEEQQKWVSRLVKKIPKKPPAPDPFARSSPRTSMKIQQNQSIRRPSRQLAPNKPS
Procedure, shortened: as §1

[28] = biological target: RSK2 (Homo sapiens, UniProt P51812); experiment: Kinase profiling; type: biochemical; conditions: 0.1 or 1 μM inhibitor; mean of triplicate
Procedure, shortened: as §1

[29] = biological target: Src (Homo sapiens, UniProt P12931); experiment: Kinase profiling; type: biochemical; conditions: 0.1 or 1 μM inhibitor; mean of triplicate
Procedure, shortened: as §1

[30] = biological target: TTBK1 (Homo sapiens, UniProt Q5TCY1); experiment: Kinase profiling; type: biochemical; conditions: 0.1 or 1 μM inhibitor; mean of triplicate
Procedure, shortened: as §1

[31] = biological target: ULK1 (Homo sapiens, UniProt O75385); experiment: Kinase profiling; type: biochemical; conditions: 0.1 or 1 μM inhibitor; mean of triplicate
Procedure, shortened: as §1

[32] = biological target: p38β MAPK (Homo sapiens, UniProt Q15759); experiment: Kinase profiling; type: biochemical; conditions: 0.1 or 1 μM inhibitor; mean of triplicate
Sequence of p38β MAPK (Q15759 whole entry): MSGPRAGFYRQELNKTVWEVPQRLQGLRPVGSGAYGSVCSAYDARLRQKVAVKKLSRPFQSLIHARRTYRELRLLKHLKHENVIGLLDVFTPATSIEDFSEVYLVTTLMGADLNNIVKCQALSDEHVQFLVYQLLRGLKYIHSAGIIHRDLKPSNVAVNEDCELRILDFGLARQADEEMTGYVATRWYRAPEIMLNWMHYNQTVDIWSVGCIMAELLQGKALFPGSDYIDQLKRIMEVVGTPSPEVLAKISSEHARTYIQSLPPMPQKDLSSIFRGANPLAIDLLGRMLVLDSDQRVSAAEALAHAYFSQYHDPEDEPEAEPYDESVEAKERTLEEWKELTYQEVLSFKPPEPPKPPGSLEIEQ
Procedure, shortened: as §1

[33] = 0.1 or 1 μM inhibitor, mean of triplicate

Row | Compound | Suppression of MYPT1 phosphorylation in U2OS cells (in words) [3] | BTK activity, percentage of DMSO control [4] [percentage] | CHK2 activity, percentage of DMSO control [5] [percentage] | CK1γ 2 activity, percentage of DMSO control [6] [percentage] | CK2 activity, percentage of DMSO control [7] [percentage] | CSK activity, percentage of DMSO control [8] [percentage] | DYRK1A activity, percentage of DMSO control [9] [percentage] | EIF2AK3 activity, percentage of DMSO control [10] [percentage] | EPH-B2 activity, percentage of DMSO control [11] [percentage] | EPH-B3 activity, percentage of DMSO control [12] [percentage] | ERK2 activity, percentage of DMSO control [13] [percentage] | GSK3β activity, percentage of DMSO control [14] [percentage] | LKB1 activity, percentage of DMSO control [15] [percentage] | MAPKAP-K3 activity, percentage of DMSO control [16] [percentage] | MINK1 activity, percentage of DMSO control [17] [percentage] | MKK2 activity, percentage of DMSO control [18] [percentage] | MKK6 activity, percentage of DMSO control [19] [percentage] | MST4 activity, percentage of DMSO control [20] [percentage] | NEK2α activity, percentage of DMSO control [21] [percentage] | PDK1 activity, percentage of DMSO control [22] [percentage] | further results
1 | CN1C(=O)c2ccccc2N(C)c2nc(Nc3cnn(C4CCNCC4)c3)ncc21 [XMD-17-51] |  |  |  |  |  |  |  |  |  |  |  |  |  |  |  |  |  |  |  |  | Inhibition of MARK1 in profiling (in words) ([1]; 1 μM): inhibited; Inhibition of MARK3 in profiling (in words) ([2]; 1 μM): inhibited
2 | Cc1nc(Nc2cnn(C3CCNCC3)c2)nc2c1N(C)C(=O)c1cc3ccccc3cc1N2C [HTH-01-015] | to the same extent as shRNA-mediated NUAK1 knockdown | 109 | 105 | 109 | 120 | 103 | 89 | 99 | 97 | 120 | 125 | 119 | 98 | 96 | 101 | 111 | 87 | 119 | 103 | 102 | MARK1 activity, percentage of DMSO control [1, 33]: 106 percentage; MARK3 activity, percentage of DMSO control [2, 33]: 102 percentage; PHK activity, percentage of DMSO control [23]: 104 percentage; PKBα activity, percentage of DMSO control [24]: 87 percentage; PKBβ activity, percentage of DMSO control [25]: 104 percentage; PRAK activity, percentage of DMSO control [26]: 105 percentage; ROCK 2 activity, percentage of DMSO control [27]: 110 percentage; RSK2 activity, percentage of DMSO control [28]: 106 percentage; Src activity, percentage of DMSO control [29]: 76 percentage; TTBK1 activity, percentage of DMSO control [30]: 124 percentage; ULK1 activity, percentage of DMSO control [31]: 132 percentage; p38β MAPK activity, percentage of DMSO control [32]: 112 percentage
3 | CCC(=O)Nc1cccc(Oc2nc(Nc3ccc(N4CCN(C)CC4)cc3OC)ncc2Cl)c1 [WZ4003] | to the same extent as shRNA-mediated NUAK1 knockdown | 114 | 40 | 102 | 76 | 105 | 102 | 76 | 107 | 113 | 107 | 88 | 87 | 91 | 120 | 98 | 101 | 101 | 110 | 104 | PHK activity, percentage of DMSO control [23]: 54 percentage; PKBα activity, percentage of DMSO control [24]: 98 percentage; PKBβ activity, percentage of DMSO control [25]: 114 percentage; PRAK activity, percentage of DMSO control [26]: 94 percentage; ROCK 2 activity, percentage of DMSO control [27]: 80 percentage; RSK2 activity, percentage of DMSO control [28]: 76 percentage; Src activity, percentage of DMSO control [29]: 109 percentage; TTBK1 activity, percentage of DMSO control [30]: 78 percentage; ULK1 activity, percentage of DMSO control [31]: 52 percentage; p38β MAPK activity, percentage of DMSO control [32]: 104 percentage
